Test results reported in patent US20100273814A1, “((PHENYL)IMIDAZOLYL)METHYLHETEROARYL COMPOUNDS” (priority 2007, published 2010).
Read-outs that look alike come from different tables or passages of the source.

Columns and labels:
Type in all cases: cell-based
alpha2C receptor = target: T1, alpha2C receptor (Homo sapiens, UniProt P18825); test: Receptor Selection and Amplification Technology (RSAT) assay, alpha2C; settings: for Alpha 2C intrinsic activity (efficacy): ratio of maximal effect to that of standard full agonist brimonidine (UK14304), value in brackets
T1 construct: expressed in transfected cells; host or cells: NIH-3T3 cells
T1 sequence (P18825 1-462): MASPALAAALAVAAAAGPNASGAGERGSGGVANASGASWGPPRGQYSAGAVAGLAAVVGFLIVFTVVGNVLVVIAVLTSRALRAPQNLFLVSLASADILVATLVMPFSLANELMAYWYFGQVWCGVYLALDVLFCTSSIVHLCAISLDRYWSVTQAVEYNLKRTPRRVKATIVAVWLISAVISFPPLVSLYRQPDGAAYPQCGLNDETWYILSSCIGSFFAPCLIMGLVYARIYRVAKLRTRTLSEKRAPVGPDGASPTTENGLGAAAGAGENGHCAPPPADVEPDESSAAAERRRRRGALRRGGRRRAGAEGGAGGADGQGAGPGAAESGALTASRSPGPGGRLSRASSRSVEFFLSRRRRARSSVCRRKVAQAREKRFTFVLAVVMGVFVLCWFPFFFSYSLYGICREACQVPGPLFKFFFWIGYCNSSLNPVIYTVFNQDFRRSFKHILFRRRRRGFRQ
Protocol: (§1) Receptor Selection and Amplification Technology (RSAT) Assay
(§2) The RSAT assay measures a receptor-mediated loss of contact inhibition that results in selective proliferation of receptor-containing cells in a mixed population of confluent cells. The increase in cell number is assessed with an appropriate transfected marker gene such as β-galactosidase, the activity of which can be easily measured in a 96-well format. Receptors that activate the G protein, Gq, elicit this response. Alpha2 receptors, which normally couple to Gi, activate the RSAT response when coexpressed with a hybrid Gq protein that has a Gi receptor recognition domain, called Gq/i5.
(§3) NIH-3T3 cells are plated at a density of 2×10^6 cells in 15 cm dishes and maintained in Dulbecco's modified Eagle's medium supplemented with 10% calf serum. One day later, cells are cotransfected by calcium phosphate precipitation with mammalian expression plasmids encoding p-SV-β-galactosidase (5-10 μg), receptor (1-2 μg) and G protein (1-2 μg). 40 μg salmon sperm DNA may also be included in the transfection mixture. Fresh media is added on the following day and 1-2 days later, cells are harvested and frozen in 50 assay aliquots. Cells are thawed and […] added to 100 aliquots of various concentrations of drugs in triplicate in 96-well dishes. Incubations continue 72-96 hr at 37° C. After washing with phosphate-buffered saline, β-galactosidase enzyme activity is determined by adding 200 μl of the chromogenic substrate (consisting of 3.5 mM o-nitrophenyl-β-D-galactopyranoside and 0.5% nonidet P-40 in phosphate buffered saline), incubating overnight at 30° C. and measuring optical density at 420 nm. The absorbance is a measure of enzyme activity, which depends on cell number and reflects a receptor-mediated cell proliferation. The efficacy or intrinsic activity is calculated as a ratio of the maximal effect of the drug to the maximal effect of a standard full agonist for each receptor subtype. Brimonidine, also called UK14304, the chemical structure of which is shown below, is used as the standard agonist for the alpha2A, alpha2B and alpha2C receptors. The EC50 is the concentration at which the drug effect is half of its maximal effect.
(§4) EC50 values are nanomolar. ND stands for “not determinable” at concentrations less than 10 micromolar. IA stands for “intrinsic activity.”

alpha2B receptor = target: T2, alpha2B receptor (Homo sapiens, UniProt P18089); test: Receptor Selection and Amplification Technology (RSAT) assay, alpha2B; settings: for Alpha 2B intrinsic activity (efficacy): ratio of maximal effect to that of standard full agonist brimonidine (UK14304), value in brackets
T2 construct: expressed in transfected cells; host or cells: NIH-3T3 cells
T2 sequence (P18089 1-450): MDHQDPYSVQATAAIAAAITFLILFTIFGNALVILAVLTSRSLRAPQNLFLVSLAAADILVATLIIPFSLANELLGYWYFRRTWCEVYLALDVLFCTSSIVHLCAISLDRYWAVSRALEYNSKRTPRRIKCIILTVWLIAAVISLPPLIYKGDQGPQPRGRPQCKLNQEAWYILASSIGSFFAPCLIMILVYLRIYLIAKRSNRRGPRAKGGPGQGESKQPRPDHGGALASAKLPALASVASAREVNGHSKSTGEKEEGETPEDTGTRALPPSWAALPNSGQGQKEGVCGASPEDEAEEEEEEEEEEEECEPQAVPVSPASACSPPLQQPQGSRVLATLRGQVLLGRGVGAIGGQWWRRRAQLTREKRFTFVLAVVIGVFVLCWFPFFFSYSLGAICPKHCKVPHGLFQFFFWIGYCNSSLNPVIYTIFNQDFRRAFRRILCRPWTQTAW
Protocol: as §1, §2, §3, §4

alpha2A receptor = target: T3, alpha2A receptor (Homo sapiens, UniProt P08913); test: Receptor Selection and Amplification Technology (RSAT) assay, alpha2A; settings: for Alpha 2A intrinsic activity (efficacy): ratio of maximal effect to that of standard full agonist brimonidine (UK14304), value in brackets
T3 construct: expressed in transfected cells; host or cells: NIH-3T3 cells
T3 sequence (P08913 1-465): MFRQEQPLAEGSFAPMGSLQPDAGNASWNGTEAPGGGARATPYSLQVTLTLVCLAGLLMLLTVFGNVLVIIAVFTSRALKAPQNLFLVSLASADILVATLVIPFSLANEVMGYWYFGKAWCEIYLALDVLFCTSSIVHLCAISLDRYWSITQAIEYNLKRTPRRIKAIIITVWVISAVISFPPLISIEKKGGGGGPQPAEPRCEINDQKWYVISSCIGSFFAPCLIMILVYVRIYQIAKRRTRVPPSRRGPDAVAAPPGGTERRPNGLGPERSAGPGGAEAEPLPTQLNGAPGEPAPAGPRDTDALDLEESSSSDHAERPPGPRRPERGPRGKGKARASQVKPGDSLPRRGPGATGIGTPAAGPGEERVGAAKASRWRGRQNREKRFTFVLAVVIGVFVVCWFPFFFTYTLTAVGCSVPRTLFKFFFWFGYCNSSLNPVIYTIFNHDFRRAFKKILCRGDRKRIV
Protocol: as §1, §2, §3, §4

[1] = RSAT, transfected NIH-3T3 cells, value outside brackets, read-out: Alpha 2C EC50 (potency)
[2] = RSAT, transfected NIH-3T3 cells, value outside brackets, read-out: Alpha 2B EC50 (potency)
[3] = RSAT, transfected NIH-3T3 cells, value outside brackets, read-out: Alpha 2A EC50 (potency)

| Structure (SMILES) | EC50 (alpha2C receptor; [1]) [nM] | Alpha 2C intrinsic activity (efficacy) (alpha2C receptor; RSAT) | EC50 (alpha2B receptor; [2]) [nM] | Alpha 2B intrinsic activity (efficacy) (alpha2B receptor; RSAT) | EC50 (alpha2A receptor; [3]) [nM] | Alpha 2A intrinsic activity (efficacy) (alpha2A receptor; RSAT) | EC50 (alpha2B receptor) [nM] | EC50 (alpha2C receptor) [nM] | EC50 (alpha2A receptor) [nM] |
| --- | --- | --- | --- | --- | --- | --- | --- | --- | --- |
| Clc1cccc(C(c2cccnc2)c2c[nH]cn2)c1Cl (centres unmarked) | 112 | 0.87 | 1.62 | 1.15 | 605 | 0.37 |  |  |  |
| Cc1c(Cl)cccc1C(c1ccccn1)c1c[nH]cn1 (centres unmarked) | 495 | 0.53 | 7.8 | 1.39 | > 10000 | 0.12 |  |  |  |
| Fc1c(Cl)cccc1C(c1c[nH]cn1)c1cccs1 (centres unmarked) |  | 0.28 |  | 0.93 |  | 0.21 | 46 |  |  |
| Fc1cccc(C(c2cccnc2)c2c[nH]cn2)c1Cl (centres unmarked) | 88 | 0.87 | 4.8 | 0.98 | 3370 | 0.32 |  |  |  |
| CC(C)c1ccc(C(c2c[nH]cn2)c2cccc(F)c2Cl)s1 (centres unmarked) |  | 0.23 | 75 | 0.40 |  | 0.06 |  |  |  |
| Clc1cccc(C(c2ccccn2)c2c[nH]cn2)c1Cl (centres unmarked) [2-((2,3-dichlorophenyl)(1H-imidazol-5-yl)methyl)pyridine] |  | 0.39 |  | .85 |  | 0.21 | 8.7 | 784 | > 10000 |
| Fc1cccc(C(c2ccccn2)c2c[nH]cn2)c1F (centres unmarked) [2-((2,3-difluorophenyl)(1H-imidazol-5-yl)methyl)pyridine] | > 10000 | 0.16 | 405 | 1.08 | > 10000 | 0.05 |  |  |  |
| Cc1cccc(C(c2ccccn2)c2c[nH]cn2)c1C (centres unmarked) [2-((2,3-dimethylphenyl)(1H-imidazol-4-yl)methyl)pyridine] | 356 | 0.64 | 0.92 | 1.22 | 1930 | 0.39 |  |  |  |
| Fc1c(C(c2ccccn2)c2c[nH]cn2)cccc1C(F)(F)F (centres unmarked) [2-((2-fluoro-3-(trifluoromethyl)phenyl)(1H-imidazol-5-yl)methyl)pyridine] | 507 | 1.09 | 39 | 1.1 | > 10000 | 0.08 |  |  |  |
| Fc1ccccc1C(c1ccccn1)c1c[nH]cn1 (centres unmarked) [2-((2-fluorophenyl)(1H-imidazol-5-yl)methyl)pyridine] | 2080 | 0.43 | 993 | 0.56 | > 10000 | 0.04 |  |  |  |
| Cc1ccccc1C(c1ccccn1)c1c[nH]cn1 (centres unmarked) [2-((2-methylphenyl)(1H-imidazol-5-yl)methyl)pyridine] | 213 | 0.57 | 177 | 0.92 | > 10000 | 0.03 |  |  |  |
| Fc1c(Cl)cccc1C(c1ccccn1)c1cnc[nH]1 (centres unmarked) [2-((3-chloro-2-fluorophenyl)(1H-imidazol-5-yl)methyl)pyridine] | 177 | 0.49 | 32 | 1.21 | > 10000 | 0.07 |  |  |  |
| Cc1c(F)cccc1C(c1ccccn1)c1c[nH]cn1 (centres unmarked) [2-((3-fluoro-2-methylphenyl)(1H-imidazol-5-yl)methyl)pyridine] | 440 | 0.38 | 36 | 1.07 | > 10000 | 0.04 |  |  |  |
| Fc1cccc(C(c2ccccn2)c2c[nH]cn2)c1 (centres unmarked) [2-((3-fluorophenyl)(1H-imidazol-5-yl)methyl)pyridine] | > 10000 | 0.25 | 273 | 0.64 | > 10000 | 0.14 |  |  |  |
| c1ccc(C(c2ccccn2)c2c[nH]cn2)cc1 (centres unmarked) [2-((phenyl)(1H-imidazol-5-yl)methyl)pyridine] | > 10000 | 0.09 | 469 | 0.87 | > 10000 | 0.04 |  |  |  |
| Fc1cccc(C(c2cccnc2)c2c[nH]cn2)c1F (centres unmarked) [3-((2,3-difluorophenyl)(1H-imidazol-5-yl)methyl)pyridine] | 656 | 0.85 | 68 | 0.93 | > 10000 | 0.05 |  |  |  |
| Cc1cccc(C(c2cccnc2)c2c[nH]cn2)c1C (centres unmarked) [3-((2,3-dimethylphenyl)(1H-imidazol-5-yl)methyl)pyridine] | 14 | 0.55 | 0.33 | 1.25 | > 10000 | 0.19 |  |  |  |
| Fc1c(C(c2cccnc2)c2c[nH]cn2)cccc1C(F)(F)F (centres unmarked) [3-((2-fluoro-3-(trifluoromethyl)phenyl)(1H-imidazol-5-yl)methyl)pyridine] | 32 | 0.42 | 5.2 | 1.24 | > 10000 | 0.23 |  |  |  |
| Fc1ccccc1C(c1cccnc1)c1c[nH]cn1 (centres unmarked) [3-((2-fluorophenyl)(1H-imidazol-5-yl)methyl)pyridine] |  | 0.55 |  | 0.60 |  | 0.7 | 251 | 2480 | > 10000 |
| Cc1ccccc1C(c1cccnc1)c1c[nH]cn1 (centres unmarked) [3-((2-methylphenyl)(1H-imidazol-5-yl)methyl)pyridine] | > 10000 | 0.29 | 259 | 0.61 | > 10000 | 0.06 |  |  |  |
